Measurements from patent publication US7022695B2, “Thioether-substituted benzamides as inhibitors of Factor Xa” (Millennium Pharmaceuticals, Inc., priority 2003, dated 2006).

Target: T1, human plasma protein factor Xa (Homo sapiens, UniProt P00742)
T1 construct: The human plasma protein factor Xa was purchased from Haematologic Technologies; purchased Haematologic Technologies (Essex Junction, Vt.); host or cells: human plasma
Assay: Factor Xa Ki determination (cleavage of chromogenic substrate S-2765)
Format: biochemical
Conditions: fXa 1 nM, S-2765 200 μM, pH 7.4
Method: Protocol for Assay of Factor Xa Inhibitors
The substrate S-2765 (Z-D-Arg-Gly-Arg-pNA.HCl) was obtained from Diapharma (West Chester, Ohio).
The human plasma protein factor Xa was purchased from Haematologic Technologies (Essex Junction, Vt.).
The assay buffer for this series of assays was: Hepes buffered saline (20 mM Hepes, 150 mM NaCl, 5 mM CaCl2, 0.1% PEG-8000, pH 7.4). In a 96-well microtiter plate, inhibitor was serially diluted in a duplicate set of wells to give a range of final concentrations from 5 pM to 3 μM final. Controls without inhibitor (8 wells) were included. The enzyme, fXa (1 nM final) was added to the wells. The substrate S-2765 (200 μM final) was added and the degree of substrate hydrolysis was measured at 405 nm on a Thermomax plate reader for 5 minutes, using Softmax software. Initial velocities (mOD/min) were analyzed by non-linear least squares regression in the Plate Ki software (BioKin Ltd, Pullman, Wash.)(Literature reference: Kusmic P, et al., “High-throughput screening of enzyme inhibitors: Automatic determination of tight-binding inhibition constants” Anal. Biochemistry 2000, 281:62–67). The model used for fitting the inhibitor dose-response curves was the Morrison equation. An apparent Ki (Ki*) was determined. The overall Ki was calculated using the following equation: […]

T1 sequence (P00742 235-488 limits assumed): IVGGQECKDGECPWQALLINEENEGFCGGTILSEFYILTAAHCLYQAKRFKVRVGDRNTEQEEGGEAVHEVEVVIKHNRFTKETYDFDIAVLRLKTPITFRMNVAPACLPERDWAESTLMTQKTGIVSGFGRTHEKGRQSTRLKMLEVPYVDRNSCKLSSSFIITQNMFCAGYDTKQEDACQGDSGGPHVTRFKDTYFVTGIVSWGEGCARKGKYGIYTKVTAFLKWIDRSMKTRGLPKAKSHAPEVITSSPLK
T1 sequence (P00742 41-179 partner limits assumed): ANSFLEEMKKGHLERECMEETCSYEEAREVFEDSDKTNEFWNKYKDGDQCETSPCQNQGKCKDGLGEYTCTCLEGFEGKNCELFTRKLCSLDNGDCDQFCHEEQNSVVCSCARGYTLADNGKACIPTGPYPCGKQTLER

Row | Ki [nM] | SMILES
1 | < 10 | CN(C)C(=N)c1ccc(C(=O)Nc2ccc(SCC(=O)N3CCCCC3)cc2C(=O)Nc2ccc(Cl)cn2)cc1 [Example 2]
2 | < 10 | CN(C)C(=N)c1ccc(C(=O)Nc2ccc(SCC(=O)N3CCN(C(=O)OC(C)(C)C)CC3)cc2C(=O)Nc2ccc(Cl)cn2)cc1 [Example 3]

More lines, now with the values behind:

Row | SMILES | Ki [nM]
3 | CN(C)C(=N)c1ccc(C(=O)Nc2ccc(SCC(=O)N(C)C)cc2C(=O)Nc2ccc(Cl)cn2)cc1 [Example 1, N-(5-chloro-2-pyridinyl)-2-(4-N,N-dimethylamidinophenylcarbonyl)amino-5-acetic acid dimethylamide sulfanyl-phenylcarboxamide] | < 10
4 | CN(C)C(=O)CSc1ccc(NC(=O)c2ccc(C3=NCCN3C)cc2)c(C(=O)Nc2ccc(Cl)cn2)c1 [Example 4] | < 10
5 | CN1CCN=C1c1ccc(C(=O)Nc2ccc(SCC(N)=O)cc2C(=O)Nc2ccc(Cl)cn2)cc1 [Example 6] | < 10
6 | CNC(=O)CSc1ccc(NC(=O)c2ccc(C3=NCCN3C)cc2)c(C(=O)Nc2ccc(Cl)cn2)c1 [Example 7] | < 10
7 | CN(C)CCSc1ccc(NC(=O)c2ccc(C(=N)N(C)C)cc2)c(C(=O)Nc2ccc(Cl)cn2)c1 [Example 9] | < 10
